In US20090124672A1 (priority 2007, published 2009):
Values joined by “and” are separate entries in the source; they are usually repeats but may differ in a detail not shown here. Equal values may be shown once.

Legend:
[1] = test system: Sprague-Dawley rats treated with DMCM; assay: Social interaction test, DMCM-induced anxiety; format: in vivo, rat; settings: 3.75, 7.5 or 15 mg/kg i.p. 15 min before 0.5 mg/kg DMCM
Source text: (§1) Experienced observers blinded to the experimental conditions carried out the social interaction test in a square open field (60 cm by 60 cm, with 16 15×15 cm squares marked out on the floor). Pairs of rats receiving the same treatment were placed in the arena and the onset of social interactions recorded. This procedure has been validated by previous studies (Overstreet et al. (2002); Overstreet et al. (2003)). Rats were unfamiliar with the open field and lighting conditions were low in order to generate an intermediate level of anxiety-related behavior. Rat pairs matched according to weight and treatment were placed simultaneously in the open field. During the 5-min session, line crosses (by two forepaws) and time spent in social interaction (grooming, sniffing, following) were scored individually for each rat (Kampov-Polevoy et al., 2000; Overstreet et al., 2002, 2003).
(§2) Fifteen min later the rats received a second injection of 0.5 mg/kg DMCM (methyl 6,7-demethoxy-4-ethyl-β-carboline-3-carboxylate) or vehicle (acidified saline). The rats were placed in the open field arena 15 min after the second injection for recording social interaction and locomotor activity for 5-min. Approximately one week later the rats were treated with Compound A (3.75, 7.5 or 15 mg/kg). The 5-HT2C agonist mCPP (m-chlorophenylpiperazine; 0.5 mg/kg) or vehicle (saline) was given 15 min later. After another 15 min period, the social interaction and locomotor activity for five min were recorded.

[2] = test system: SD rats subjected to restraint stress; assay: Social interaction test, restraint-induced stress; format: in vivo, rat; settings: 15 mg/kg pretreatment
Source text: as §1
Restraint-Induced Stress Study: SD rats were injected with either CMC vehicle or 15 mg/kg Compound A in vehicle and subjected to restraint stress in decapicones for one hour. After a 30-min recovery period, the rats were exposed to the open field arena for […] and social interaction and line crosses recorded.

Rats [3] = assay: Example 32 social interaction, line crosses and center entries; format: in vivo, rat; set-up: Social Interaction, Mean / Social Interaction, individual rat: unit not given here; settings: 15 mg/kg
Source text: (§3) One noninjected rat was included in the control group for water intake.

Rats [4] = assay: Example 32 alcohol, food and water intake; format: in vivo, rat; settings: 15 mg/kg
Source text: as §3

[5] = test system: alcohol-withdrawn Sprague-Dawley (SD) rats; assay: Social interaction test, repeated alcohol withdrawal-induced anxiety; format: in vivo, rat
Source text: as §1
Ethanol Exposure Studies: Individually housed Sprague-Dawley (SD) rats were given a complete nutritious liquid diet (Knapp et al., 2004; Overstreet et al., 2002) after 5 days to adapt to local conditions. Three days later, most of rats received a 4.5% ethanol liquid diet and others remained on the control liquid diet without ethanol. Rats consumed ethanol for 15 days in three cycles of 5 days each separated by a 2-day withdrawal period between cycles. This design enabled us to test two treatment regimens with Compound A. Acute effects of Compound A (3.75 and 15 mg/kg) were determined 4.5 hr after the 3rd ethanol cycle to allow alcohol washout. The social interaction test was carried out 30 min later.

[6] = test system: Sprague-Dawley rats treated with mCPP; assay: Social interaction test, mCPP-induced anxiety; format: in vivo, rat; settings: 3.75, 7.5 or 15 mg/kg 15 min before 0.5 mg/kg mCPP
Source text: as §1, §2

[7] = test system: congenitally anxious Fawn-Hooded (FH) rats; assay: Social interaction test, Fawn Hooded (FH) rat model of anxiety; format: in vivo; settings: 15 mg/kg i.p., 30 min after injection
Source text: as §1

hMAO-B = target: T1, hMAO-B (Homo sapiens, UniProt P27338); assay: MAO-B inhibition assay (Amplex Red, horseradish peroxidase-coupled); format: biochemical
T1 construct: purchased Sigma M7441
T1 sequence (P27338 1-520): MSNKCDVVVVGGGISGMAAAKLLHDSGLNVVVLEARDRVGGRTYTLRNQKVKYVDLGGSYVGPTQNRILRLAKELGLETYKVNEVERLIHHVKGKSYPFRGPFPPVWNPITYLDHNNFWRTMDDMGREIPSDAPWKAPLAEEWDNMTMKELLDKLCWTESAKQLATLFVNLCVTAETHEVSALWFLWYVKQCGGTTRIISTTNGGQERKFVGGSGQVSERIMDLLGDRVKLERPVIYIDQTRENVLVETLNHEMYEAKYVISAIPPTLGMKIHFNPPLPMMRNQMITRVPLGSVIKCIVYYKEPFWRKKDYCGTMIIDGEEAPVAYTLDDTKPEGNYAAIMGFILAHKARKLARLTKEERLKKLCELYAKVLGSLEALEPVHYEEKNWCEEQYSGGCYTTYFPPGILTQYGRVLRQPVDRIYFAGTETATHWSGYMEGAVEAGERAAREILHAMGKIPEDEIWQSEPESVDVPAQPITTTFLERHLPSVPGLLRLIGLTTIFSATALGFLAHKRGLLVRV
Experimental: (§4) MAO-A (Sigma M7316) and MAO-B (Sigma M7441) inhibition assays were conducted in 96-well micro-plates according to the method described by Zhou et al. [Analytical Biochemistry 253, 169-174, 1997]. Both assays were performed in potassium phosphate buffer (0.1 M, pH 7.5) containing 0.5 mM tyramine (Sigma T2879), 0.12 mM N-acetyl-3,7-dihydrophenoxazine (Amplex Red, Invitrogen A12222), 1.2 unit/ml horseradish peroxidase (Sigma P2088), 0.6 unit/ml MAO-A or 2.5 unit/ml MAO-B, and various concentrations of test compounds (0.1 nM to 10 uM). Reactions were initiated by the addition of a pre-mixed solution of tyramine, horseradish peroxidase and Amplex Red, and were allowed to proceed at 37° C. for 30 min. Enzyme activities were determined by measuring absorbance at 570 nm (SpectralMax Plate reader), absorbance of oxidized Amplex Red generated by this horseradish peroxidase-coupled reaction. Nonspecifically formed products were determined in the presence of 2 and 10 µM clorgyline and deprenyl for MAO-A and MAO-B, respectively. IC50 values were determined by fitting concentration-inhibition data to sigmoidal dose-response curves with two-floating parameters: IC50 and Hill coefficient.

hMAO-A = target: T2, hMAO-A (Homo sapiens, UniProt P21397); assay: MAO-A inhibition assay (Amplex Red, horseradish peroxidase-coupled); format: biochemical
T2 construct: purchased Sigma M7316
T2 sequence (P21397 1-527): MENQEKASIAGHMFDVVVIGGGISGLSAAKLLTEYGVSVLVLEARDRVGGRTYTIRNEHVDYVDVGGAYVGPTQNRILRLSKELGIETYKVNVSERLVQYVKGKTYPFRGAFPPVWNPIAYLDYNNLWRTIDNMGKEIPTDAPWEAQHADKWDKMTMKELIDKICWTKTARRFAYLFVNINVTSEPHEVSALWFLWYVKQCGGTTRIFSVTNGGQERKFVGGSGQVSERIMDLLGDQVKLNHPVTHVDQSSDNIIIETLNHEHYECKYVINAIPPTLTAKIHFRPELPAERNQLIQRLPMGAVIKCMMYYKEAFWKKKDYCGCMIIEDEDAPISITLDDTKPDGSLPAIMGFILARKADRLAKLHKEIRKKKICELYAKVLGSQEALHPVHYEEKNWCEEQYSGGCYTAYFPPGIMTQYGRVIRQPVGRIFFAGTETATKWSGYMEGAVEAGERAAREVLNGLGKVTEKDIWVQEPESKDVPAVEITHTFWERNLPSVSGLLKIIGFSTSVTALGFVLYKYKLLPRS
Experimental: as §4

[8] = target: T3, hALDH2 (recombinant human mitochondria ALDH) (Homo sapiens, UniProt P05091); assay: ALDH2 inhibition assay (NADH formation, formaldehyde substrate); format: biochemical
T3 sequence (P05091 18-517): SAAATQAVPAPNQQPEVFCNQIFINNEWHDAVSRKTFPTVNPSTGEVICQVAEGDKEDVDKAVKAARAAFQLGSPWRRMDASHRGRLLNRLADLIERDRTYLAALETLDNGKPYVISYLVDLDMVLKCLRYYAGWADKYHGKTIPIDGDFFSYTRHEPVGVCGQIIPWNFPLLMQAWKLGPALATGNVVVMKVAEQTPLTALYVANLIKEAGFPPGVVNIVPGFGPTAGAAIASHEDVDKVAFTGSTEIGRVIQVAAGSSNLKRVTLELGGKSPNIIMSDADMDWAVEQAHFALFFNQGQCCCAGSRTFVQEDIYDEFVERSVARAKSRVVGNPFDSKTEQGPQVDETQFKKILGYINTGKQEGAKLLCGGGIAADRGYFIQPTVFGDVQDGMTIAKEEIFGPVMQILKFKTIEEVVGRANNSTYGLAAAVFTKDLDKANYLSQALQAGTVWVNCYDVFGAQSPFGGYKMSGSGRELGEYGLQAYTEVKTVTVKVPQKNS
Outline: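 1 nM enzyme in 50 mM sodium phosphate pH 7.4 with 1.2 mM NAD+ and compound at 0.03–1000 nM; reaction started with 0.15 mM formaldehyde at 25 °C. NADH formation followed by fluorescence (ex 340/em 460 nm). IC50 from sigmoidal fits with floating Hill slope; apparent Ki from Morrison equation if tight binding.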

Syrian golden hamsters = settings: compared with daidzin; cited from earlier work
[9] = 30 min before test, listed as Comp. A

SMILES: CS(=O)(=O)Nc1ccc(-c2coc3cc(OCc4cccc(C(=O)O)c4)ccc3c2=O)cc1 [Compound A, 3-[(3-{4-[(methylsulfonyl)amino]phenyl}-4-oxochromen-7-yloxy)methyl]benzoic acid]
- anxiogenic effects of DMCM (reduced social interaction) [1]: prevented by Compound A in a dose-dependent manner
- reduced locomotor activity caused by DMCM [1]: not affected by Compound A, except at 7.5 mg/kg
- locomotor activity after restraint stress [2]: no significant
- social interaction after restraint stress ([2]; restraint 60 min, 30-min recovery): prevented stress-induced anxiety-like behavior
- Center Entries, Mean (Rats [3]; 30 min before test, n=6): 19.3
- Line Crosses, Mean (Rats [3]; 30 min before test, n=6): 109
- Center Entries, individual rat (Rats [3]; [9]): 28 and 25 and 18 and 13 and 26 and 6
- Line Crosses, individual rat (Rats [3]; [9]): 135 and 125 and 84 and 113 and 104 and 90
- Social Interaction, Mean (Rats [3]; 30 min before the social interaction, n=6): 13.3
- Social Interaction, individual rat (Rats [3]; 30 min before the social interaction, listed as Comp. A): 13 and 16 and 14 (2×) and 11 and 12
- activity, in words (Rats [3]; vs vehicle): not activity
- social interaction (anxiolytic effect), in words (Rats [3]; vs vehicle): increased social interaction
- food intake, in words (Rats [4]): did not affect
- water intake, in words (Rats [4]): did not affect
- 2 hr Alcohol Intake, Mean (Rats [4]; 2 hr, n=6): 0.2
- 2 hr Alcohol Intake, individual rat (Rats [4]; 2 hr, listed as Comp. A): 0 (2×) and 0.38 (3×) and 0.19
- 4 hr Alcohol Intake, Mean (Rats [4]; 4 hr, n=6): 0.7
- 4 hr Alcohol Intake, individual rat (Rats [4]; 4 hr, listed as Comp. A): 0.88 and 0.4 and 0.76 and 0.95 and 0.38 and 0.57
- 6 hr Alcohol Intake, Mean (Rats [4]; 6 hr, n=6): 1.3
- 6 hr Alcohol Intake, individual rat (Rats [4]; 6 hr, listed as Comp. A): 1.72 and 1.2 and 1.23 and 1.71 and 0.95 and 1
- 24 hr Alcohol Intake, Mean (Rats [4]; 24 hr, n=6): 4.1
- 24 hr Alcohol Intake, individual rat (Rats [4]; 24 hr, listed as Comp. A): 3.2 and 4 and 4.94 and 5.32 and 3.23 and 3.6
- alcohol intake, in words (Rats [4]; from 2-6 hr): reduced alcohol intake
- Food Intake, Mean (Rats [4]; n=6): 19.7
- Food Intake, individual rat (Rats [4]; listed as Comp. A): 19 (2×) and 18 and 21 (2×) and 20
- social interaction behavior, prophylactic treatment ([5]; 3.75-15 mg/kg during 1st and 2nd withdrawals, none after 3rd cycle, tested 5 days after last dose): increased social interaction behavior prophylactically
- locomotor activity ([5]; acute treatment after alcohol withdrawal, SD rats): No significant differences
- time of social interaction after alcohol withdrawal ([5]; acute, 3.75 and 15 mg/kg injected 30 min before testing, SD rats): increased the time of social interaction
- social interaction behavior after alcohol withdrawal ([5]; acute, higher doses, SD rats): completely normalizing the behavior
- locomotor activity (line crosses), prophylactic treatment ([5]; compared to vehicle treated rats withdrawn from the alcohol liquid diet): barely significant effect
- mCPP-induced anxiogenesis (social interaction) [6]: did not prevent mCPP-induced anxiogenesis
- locomotor line crossing [7]: did not affect locomotor line crossing
- increase in social interaction ([7]; vs vehicle): 2 fold

SMILES: CCOC(=O)c1ccc(COc2ccc3c(=O)c(-c4ccc(O)cc4)coc3c2)cc1 [PT-34, ethyl 4-{[3-(4-hydroxyphenyl)-4-oxochromen-7-yloxy]methyl}benzoate]
- IC50 (hMAO-B): 2.3 µM
- IC50 (hMAO-A): 24 µM
- IC50 [8]: 0.13 µM

SMILES: N#CCOc1ccc2c(=O)c(-c3ccc(O)cc3)coc2c1 [PT-88, 2-[3-(4-hydroxyphenyl)-4-oxochromen-7-yloxy]ethanenitrile]
- inhibition at 10 µM (hMAO-B; at 10 μM, read-out: hMAO-B inhibition (IC50 hMAO-B)): 35%
- IC50 (hMAO-A): 6.2 µM
- IC50 [8]: 0.023 µM

SMILES: O=c1c(-c2ccc(O)cc2)coc2cc(O)ccc12 [daidzein]
- suppressing ethanol uptake (Syrian golden hamsters): effective in suppressing ethanol uptake, but with decreased potency
